# Reference: paper PMC6979384, “Characterization of the plant homeodomain (PHD) reader family for their histone tail interactions” (Epigenetics & Chromatin, 2020)
# Legend:
# Assay in all cases: Histone peptide microarray
# Type in all cases: binding, human
# Conditions in all cases: histone peptide array
# [1] = test system: AIRE (PP)
# In short: (§1)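 Readout is array binding signal, reported as the mean and standard deviation over four replicates. Each purified GST-fused PHD domain was incubated at 0.5 μM with a library of 293 modified histone peptides.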
# [2] = test system: BAZ2B
# In short: as §1
# [3] = test system: BPTF (PB)
# In short: as §1
# [4] = test system: CHD4 (PPCC)
# In short: as §1
# [5] = test system: CHD5 (PCC)
# In short: as §1
# [6] = test system: CHD5 (PPCC)
# In short: as §1
# [7] = test system: DIDO1
# In short: as §1
# [8] = test system: DPF2 (PPC2W2)
# In short: as §1
# [9] = test system: ING1
# In short: as §1
# [10] = test system: ING2
# In short: as §1
# [11] = test system: ING3
# In short: as §1
# [12] = test system: ING4
# In short: as §1
# [13] = test system: ING5
# In short: as §1
# [14] = test system: KDM4C (TTP)
# In short: as §1
# [15] = test system: KDM5A (1)
# In short: as §1
# [16] = test system: KDM5A (3)
# In short: as §1
# [17] = test system: KDM5B (1)
# In short: as §1
# [18] = test system: KDM5B (3)
# In short: as §1
# [19] = test system: KDM7A
# In short: as §1
# [20] = test system: MLL5
# In short: as §1
# [21] = test system: MORC3 (CW)
# In short: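 Purified PHD finger domains fused to GST are screened against 293 synthetic histone peptides bearing one or several post-translational modifications. The protein is used at 0.5 μM, and the signal from four replicate arrays is averaged, with standard deviation given.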
# [22] = test system: PHF13
# In short: as §1
# [23] = test system: PHF21A
# In short: as §1
# [24] = test system: PHF23
# In short: as §1
# [25] = test system: PHF2
# In short: as §1
# [26] = test system: PHF8
# In short: as §1
# [27] = test system: PHRF1 (RP)
# In short: as §1
# [28] = test system: RAG2
# In short: as §1
# [29] = test system: SP140L
# In short: as §1
# [30] = test system: TAF3
# In short: as §1
# [31] = test system: TRIM66 (PB)
# In short: as §1
# [32] = sheet "Array Heatmap", GST-tagged reader, total n = 4
substance,measurement,setting,value
H4R3me2s: H4 1-23 [Peptide H4R3me2s],"Array Heatmap signal, AIRE (PP)","[1]; GST-tagged AIRE (PP), arrays performed twice, n of 4",0.462
same,"Array Heatmap signal, BAZ2B","[2]; GST-tagged BAZ2B, arrays performed twice, n of 4",0.5351
same,"Array Heatmap signal, BPTF (PB)","[3]; GST-tagged BPTF (PB = PHD + Bromodomain), arrays performed twice, n of 4",0.3851
same,"Array Heatmap signal, CHD4 (PPCC)","[4]; GST-tagged CHD4 (PPCC = Dual PHD + Dual Chromodomain), arrays performed twice, n of 4",0.556
same,"Array Heatmap signal, CHD5 (PCC)","[5]; GST-tagged CHD5 (PCC = PHD + Dual Chromodomain), arrays performed twice, n of 4",0.8078
same,"Array Heatmap signal, CHD5 (PPCC)","[6]; GST-tagged CHD5 (PPCC = Dual PHD + Dual Chromodomain), arrays performed twice, n of 4",0.5547
same,"Array Heatmap signal, DIDO1","[7]; GST-tagged DIDO1, arrays performed twice, n of 4",0.7583
same,"Array Heatmap signal, DPF2 (PPC2W2)","[8]; GST-tagged DPF2 (PPC2W2 = Dual PHD + C2W2-type Zn-finger), arrays performed twice, n of 4",0.7228
same,"Array Heatmap signal, ING1","[9]; GST-tagged ING1, arrays performed twice, n of 4",0.5148
same,"Array Heatmap signal, ING2","[10]; GST-tagged ING2, arrays performed twice, n of 4",0.6344
same,"Array Heatmap signal, ING3","[11]; GST-tagged ING3, arrays performed twice, n of 4",0.498
same,"Array Heatmap signal, ING4","[12]; GST-tagged ING4, arrays performed twice, n of 4",0.4621
same,"Array Heatmap signal, ING5","[13]; GST-tagged ING5, arrays performed twice, n of 4",0.3741
same,"Array Heatmap signal, KDM4C (TTP)","[14]; GST-tagged KDM4C (TTP = Tandem Tudor domain + PHD), arrays performed twice, n of 4",0.5129
same,"Array Heatmap signal, KDM5A (1)","[15]; GST-tagged KDM5A (1), arrays performed twice, n of 4",0.4765
same,"Array Heatmap signal, KDM5A (3)","[16]; GST-tagged KDM5A (3), arrays performed twice, n of 4",0.6488
same,"Array Heatmap signal, KDM5B (1)","[17]; GST-tagged KDM5B (1), arrays performed twice, n of 4",0.7045
same,"Array Heatmap signal, KDM5B (3)","[18]; GST-tagged KDM5B (3), arrays performed twice, n of 4",0.5522
same,"Array Heatmap signal, KDM7A","[19]; GST-tagged KDM7A, arrays performed twice, n of 4",0.4774
same,"Array Heatmap signal, MLL5","[20]; GST-tagged MLL5, arrays performed twice, n of 4",0.6336
same,"Array Heatmap signal, MORC3 (CW)","[21]; GST-tagged MORC3 (CW = CW-type Zn-finger), arrays performed twice, n of 4",0.4671
same,"Array Heatmap signal, PHF13","[22]; GST-tagged PHF13, arrays performed twice, n of 4",0.6145
same,"Array Heatmap signal, PHF21A","[23]; GST-tagged PHF21A, arrays performed twice, n of 4",0.451
same,"Array Heatmap signal, PHF23","[24]; GST-tagged PHF23, arrays performed twice, n of 4",0.6199
same,"Array Heatmap signal, PHF2","[25]; GST-tagged PHF2, arrays performed twice, n of 4",0.5067
same,"Array Heatmap signal, PHF8","[26]; GST-tagged PHF8, arrays performed twice, n of 4",0.4581
same,"Array Heatmap signal, PHRF1 (RP)","[27]; GST-tagged PHRF1 (RP), arrays performed twice, n of 4",0.4693
same,"Array Heatmap signal, RAG2","[28]; GST-tagged RAG2, arrays performed twice, n of 4",0.376
same,"Array Heatmap signal, SP140L","[29]; GST-tagged SP140L, arrays performed twice, n of 4",0.3481
same,"Array Heatmap signal, TAF3","[30]; GST-tagged TAF3, arrays performed twice, n of 4",0.3502
same,"Array Heatmap signal, TRIM66 (PB)","[31]; GST-tagged TRIM66 (PB = PHD + Bromodomain), arrays performed twice, n of 4",0.614
H3.3K18ac + K23ac + K27ac: H3.3 15-34,"Array Heatmap signal, AIRE (PP)",[1]; [32],0.3882
same,"Array Heatmap signal, BAZ2B",[2]; [32],0.3976
same,"Array Heatmap signal, BPTF (PB)",[3]; [32],0.2983
same,"Array Heatmap signal, CHD4 (PPCC)",[4]; [32],0.4939
same,"Array Heatmap signal, CHD5 (PCC)",[5]; [32],0.7415
same,"Array Heatmap signal, CHD5 (PPCC)",[6]; [32],0.4663
same,"Array Heatmap signal, DIDO1",[7]; [32],0.6174
same,"Array Heatmap signal, DPF2 (PPC2W2)",[8]; [32],0.5923
same,"Array Heatmap signal, ING1",[9]; [32],0.4856
same,"Array Heatmap signal, ING2",[10]; [32],0.5898
same,"Array Heatmap signal, ING3",[11]; [32],0.4284
same,"Array Heatmap signal, ING4",[12]; [32],0.3863
same,"Array Heatmap signal, ING5",[13]; [32],0.2999
same,"Array Heatmap signal, KDM4C (TTP)",[14]; [32],0.4047
same,"Array Heatmap signal, KDM5A (1)",[15]; [32],0.4013
same,"Array Heatmap signal, KDM5A (3)",[16]; [32],0.3827
same,"Array Heatmap signal, KDM5B (1)",[17]; [32],0.6049
same,"Array Heatmap signal, KDM5B (3)",[18]; [32],0.4033
same,"Array Heatmap signal, KDM7A",[19]; [32],0.2948
same,"Array Heatmap signal, MLL5",[20]; [32],0.5276
same,"Array Heatmap signal, MORC3 (CW)",[21]; [32],0.3178
same,"Array Heatmap signal, PHF13",[22]; [32],0.5394
same,"Array Heatmap signal, PHF21A",[23]; [32],0.4029
same,"Array Heatmap signal, PHF23",[24]; [32],0.5184
same,"Array Heatmap signal, PHF2",[25]; [32],0.5078
same,"Array Heatmap signal, PHF8",[26]; [32],0.3485
same,"Array Heatmap signal, PHRF1 (RP)",[27]; [32],0.3802
same,"Array Heatmap signal, RAG2",[28]; [32],0.2141
same,"Array Heatmap signal, SP140L",[29]; [32],0.3146
same,"Array Heatmap signal, TAF3",[30]; [32],0.2149
same,"Array Heatmap signal, TRIM66 (PB)",[31]; [32],0.509
